Source: patent US6251899A, “Methoximinomethyloxadiazines” (Bayer Aktiengesellschaft, priority 1997, dated 2001)
Like-named read-outs stand apart in the source and are kept apart here.

How the values were obtained:
[1] = logP by HPLC (EEC Directive 79/831 Annex V. A8, gradient method, acetonitrile/0.1% aqueous phosphoric acid); format: physicochemical
Experimental: *The logP values were determined in accordance with EEC Directive 79/831
Annex V. A8 by HPLC (gradient method, acetonitrile/0.1% aqueous phosphoric

[2] = system: Plasmopara viticola; test: Plasmopara test (grapevine)/protective; conditions: 144 h
Experimental: Solvent: 47 parts by weight of acetone
(§1) Emulsifier: 3 parts by weight of alkylaryl polyglycol ether
After the spray coating has dried on, the plants are inoculated with an aqueous spore suspension of Plasmopara viticola and then remain in an incubation cabin at approximately 20° C. and 100% relative atmospheric humidity for 1 day. The plants are subsequently placed in a greenhouse at approximately 21° C. and approximately 90% relative atmospheric humidity for 5 days. The plants are then moistened and placed in an incubation cabin for 1 day.
Evaluation is carried out 6 days after the inoculation.

[3] = system: Venturia inaequalis; test: Venturia test (apple)/protective; conditions: 288 h
Experimental: Solvent: 47 parts by weight of acetone
as §1
After the spray coating has dried on, the plants are inoculated with aqueous conidia suspension of the causative organism of apple scab Venturia inaequalis and then remain in an incubation cabin at approximately 20° C. and 100% relative atmospheric humidity for 1 day.
The plants are then placed in a greenhouse at approximately 21° C. and a relative atmospheric humidity of approximately 90%.
Evaluation is carried out 12 days after the inoculation.

[4] = read-out: Efficacy, grapevine, protective, 100 g/ha, 6 days after inoculation
[5] = read-out: Efficacy, apple, protective, 10 g/ha, 12 days after inoculation

Compound | chromatographic logP [1] | pest or weed control at 100 g/ha [2, 4] [%] | pest or weed control at 10 g/ha [3, 5] [%] | other results
CCOCc1ccccc1Oc1ncnc(Oc2ccccc2C(=NOC)C2=NOCCN2)c1F [Example 62] | 3.04 | – | – | –
CON=C(C1=NOCCN1)c1ccccc1Oc1ncnc(Oc2ccccc2C2CCCC2)c1F [Example 17] | 4.01 | ≥ 90 | ≥ 90 | –
CON=C(C1=NOCCN1)c1ccccc1Oc1ncnc(Sc2cccc(Br)c2)c1F [Example 52] | 3.66 | – | – | –
CON=C(C1=NOCCN1)c1ccccc1Oc1ncnc(Oc2cccc(C)c2)c1F [Example 20] | 3.1 | ≥ 90 | ≥ 90 | –
CON=C(C1=NOCCN1)c1ccccc1Oc1ncnc(Oc2ccccc2C#N)c1F [Example 29] | 2.56 | – | – | –
CON=C(C1=NOCCN1)c1ccccc1Oc1ncnc(Oc2cc(C)ccc2Cl)c1F [Example 18] | 3.35 | – | – | –
CON=C(C1=NOCCN1)c1ccccc1Oc1ncnc(Oc2cccc3c2OC(C)(C)C3)c1F [Example 31] | 3.3 | – | ≥ 90 | –
CON=C(C1=NOCCN1)c1ccccc1Oc1ncnc(Sc2ccc(C)cc2)c1F [Example 51] | 3.45 | ≥ 90 | – | –
CON=C(C1=NOCCN1)c1ccccc1Oc1ncnc(Oc2ccccc2)c1F [Example 34] | 2.76 | ≥ 90 | – | –
CON=C(C1=NOCCN1)c1ccccc1Oc1ncnc(Oc2cccnc2Br)c1F [Example 36] | 2.43 | – | ≥ 90 | –
CON=C(C1=NOCCN1)c1ccccc1Oc1ncnc(Oc2ccc(OC(F)(F)F)cc2)c1F [Example 25] | 3.54 | – | – | –
CON=C(C1=NOCCN1)c1ccccc1Oc1ncnc(Oc2cccc(Cl)c2C)c1F [Example 2] | 3.52 | ≥ 90 | ≥ 90 | –
CON=C(C1=NOCCN1)c1ccccc1Oc1ncnc(Oc2cccc(Cl)n2)c1F [Example 40] | 2.62 | – | ≥ 90 | –
CON=C(C1=NOCCN1)c1ccccc1Oc1ncnc(Oc2ccccc2C)c1F [Example 8] | 3.01 | – | – | –
CON=C(C1=NOCCN1)c1ccccc1Oc1ncnc(Oc2ccccc2SC)c1F [Example 63] | 2.95 | – | – | –
CON=C(C1=NOCCN1)c1ccccc1Oc1ncnc(Oc2cccc(C(F)(F)F)c2)c1F [Example 24] | 3.39 | – | ≥ 90 | –
CON=C(C1=NOCCN1)c1ccccc1Oc1ncnc(Oc2ccc(SC(F)(F)F)cc2)c1F [Example 32] | 3.84 | – | – | –
CON=C(C1=NOCCN1)c1ccccc1Oc1ncnc(Oc2ccc(OC(F)(F)F)cc2Cl)c1F [Example 27] | 3.86 | – | – | –
CON=C(C1=NOCCN1)c1ccccc1Oc1ncnc(Oc2cccc(C)c2Cl)c1F [Example 59] | 3.34 | ≥ 90 | ≥ 90 | –
CON=C(C1=NOCCN1)c1ccccc1Oc1ncnc(Sc2ccccc2)c1F [Example 48] | – | ≥ 90 | ≥ 90 | –

Compound | chromatographic logP [1] | pest or weed control at 100 g/ha [2, 4] [%] | pest or weed control at 10 g/ha [3, 5] [%] | other results
CON=C(C)c1ccc(Oc2ncnc(Oc3ccccc3C(=NOC)C3=NOCCN3)c2F)c(C)c1 [Example 42] | 3.56 | – | – | –
CCSc1ccccc1Oc1ncnc(Oc2ccccc2C(=NOC)C2=NOCCN2)c1F [Example 64] | 3.26 | – | – | –
CON=C(C1=NOCCN1)c1ccccc1Oc1ncnc(Oc2ccc(OC(F)(F)F)cc2C)c1F [Example 30] | 3.8 | – | – | –
CON=C(C1=NOCCN1)c1ccccc1Oc1ncnc(Oc2cccnc2)c1F [Example 37] | 1.73 | – | – | –
CON=C(C1=NOCCN1)c1ccccc1Oc1ncnc(Oc2ccccc2OC)c1F [Example 14] | 2.7 | ≥ 90 | – | –
CON=C(C1=NOCCN1)c1ccccc1Oc1ncnc(SC2CCCCC2)c1F [Example 57] | 4.01 | – | – | –
CCc1ccccc1Oc1ncnc(Oc2ccccc2C(=NOC)C2=NOCCN2)c1F [Example 11] | 3.32 | ≥ 90 | ≥ 90 | –
CON=C(C1=NOCCN1)c1ccccc1Oc1ncnc(Oc2cc(C)ccc2C)c1F [Example 16] | 3.35 | – | – | –
CON=C(C1=NOCCN1)c1ccccc1Oc1ncnc(Oc2cccc(Cl)c2Cl)c1F [Example 1, 3-{1-[2-(4-<2,3-dichlorophenoxy>-5-fluoropyrimid-6-yloxy)-phenyl]-1-(methoximino)-methyl}-5,6-dihydro-4H-1,2,4-oxadiazine] | 3.45 | ≥ 90 | – | –
CON=C(C1=NOCCN1)c1ccccc1Oc1ncnc(Oc2cccc(OC)c2)c1F [Example 23] | 2.8 | – | ≥ 90 | –
CON=C(C1=NOCCN1)c1ccccc1Oc1ncnc(Oc2ccc(C)cc2)c1F [Example 21] | 3.08 | – | ≥ 90 | –
CON=C(C1=NOCCN1)c1ccccc1Oc1ncnc(Oc2ccccc2F)c1F [Example 10] | 2.85 | ≥ 90 | ≥ 90 | –
CON=C(C1=NOCCN1)c1ccccc1Oc1ncnc(Oc2ccc(C)nc2)c1F [Example 35] | 1.58 | – | – | –
CON=C(C1=NOCCN1)c1ccccc1Oc1ncnc(Oc2ccccc2Cl)c1F [Example 3] | 3.02 | ≥ 90 | ≥ 90 | pest or weed control at 10 g/ha ([3]; read-out: Efficacy): 92%
CON=C(C1=NOCCN1)c1ccccc1Oc1ncnc(F)c1F [IV-1, 3-{1-[2-(4,5-difluoropyrimid-6-yloxy)-phenyl]-1-(methoximino)-methyl}-5,6-dihydro-4H-1,2,4-oxadiazine] | 1.97 | – | – | –
CON=C(C1=NOCCN1)c1ccccc1Oc1ncnc(Oc2ccc(Cl)cn2)c1F [Example 41] | 2.65 | – | – | –
CON=C(C1=NOCCN1)c1ccccc1Oc1ncnc(Oc2ccc(OC(F)(F)C(F)Cl)cc2)c1F (stereo not shown) [Example 33] | 3.56 | – | – | –
CON=C(C1=NOCCN1)c1ccccc1Oc1ncnc(Oc2ccc(Cl)cc2)c1F [Example 6] | 3.23 | ≥ 90 | – | pest or weed control at 100 g/ha ([2]; read-out: Efficacy): 97%
CON=C(C1=NOCCN1)c1ccccc1Oc1ncnc(Oc2ccc(C(F)(F)F)cc2Cl)c1F [Example 26] | 3.76 | – | – | –
CON=C(C1=NOCCN1)c1ccccc1Oc1ncnc(Oc2ccc(C)cc2C)c1F [Example 15] | 3.38 | ≥ 90 | – | –

Compound | chromatographic logP [1] | pest or weed control at 100 g/ha [2, 4] [%] | pest or weed control at 10 g/ha [3, 5] [%] | other results
CON=C(C1=NOCCN1)c1ccccc1Oc1ncnc(Sc2ccc(Cl)c(C(F)(F)F)c2Cl)c1F [Example 55] | 4.3 | – | – | –
CON=C(C1=NOCCN1)c1ccccc1Oc1ncnc(Oc2cccc(Cl)c2)c1F [Example 5] | 3.23 | ≥ 90 | ≥ 90 | pest or weed control at 100 g/ha ([2]; read-out: Efficacy): 97%; pest or weed control at 10 g/ha ([3]; read-out: Efficacy): 99%
CON=C(C1=NOCCN1)c1ccccc1Oc1ncnc(Oc2cccc(C(C)(C)C)c2)c1F [Example 12] | 3.96 | – | ≥ 90 | –
CON=C(C1=NOCCN1)c1ccccc1Oc1ncnc(Sc2ccc(Cl)cc2)c1F [Example 50] | 3.57 | ≥ 90 | – | –
CON=C(C1=NOCCN1)c1ccccc1Oc1ncnc(Sc2ccc(Br)cc2)c1F [Example 49] | 3.69 | – | – | –
CON=C(C1=NOCCN1)c1ccccc1Oc1ncnc(SCc2ccccc2)c1F [Example 58] | 3.42 | – | – | –
CCSCc1ccccc1Oc1ncnc(Oc2ccccc2C(=NOC)C2=NOCCN2)c1F [Example 60] | 3.4 | – | – | –
COCc1ccccc1Oc1ncnc(Oc2ccccc2C(=NOC)C2=NOCCN2)c1F [Example 61] | 2.74 | – | – | –
CON=C(C1=NOCCN1)c1ccccc1Oc1ncnc(Oc2c(C)cccc2C)c1F [Example 19] | 3.29 | ≥ 90 | – | –
CON=C(C1=NOCCN1)c1ccccc1Oc1ncnc(OCc2cccc(Cl)c2)c1F [Example 46] | 3.44 | – | – | –
CON=C(C1=NOCCN1)c1ccccc1Oc1ncnc(OCc2ccccc2Cl)c1F [Example 45] | 2.8 | – | – | –
CON=C(C1=NOCCN1)c1ccccc1Oc1ncnc(Oc2cccc(C)c2C)c1F [Example 4] | 3.29 | ≥ 90 | ≥ 90 | pest or weed control at 10 g/ha ([3]; read-out: Efficacy): 95%
CON=C(C1=NOCCN1)c1ccccc1Oc1ncnc(Oc2ccccc2Br)c1F [Example 9] | 3.08 | ≥ 90 | – | –
CON=C1C(=NOCCOS(C)(=O)=O)Oc2ccccc21 [VI-1, benzofuran-2,3-dione 2-[O-(2-methylsulphonyloxy-ethyl)-oxime]3-(O-methyl-oxime)] | 2.39 | – | – | –
CON=C(C1=NOCCN1)c1ccccc1Oc1ncnc(Sc2cccc(Cl)c2)c1F [Example 53] | 3.56 | ≥ 90 | – | –
CON=C1C(=NOCCO)Oc2ccccc21 [benzofuran-2,3-dione 2-[O-(2-hydroxy-ethyl)-oxime] 3-(O-methyl-oxime)] | 1.65 | – | – | logP [1]: 1.79
CON=C(C1=NOCCN1)c1ccccc1Oc1ncnc(Oc2ccccc2C(C)C)c1F [Example 13] | 3.59 | ≥ 90 | ≥ 90 | –
C=Cc1ccccc1Oc1ncnc(Oc2ccccc2C(=NOC)C2=NOCCN2)c1F [Example 7] | 3.38 | ≥ 90 | ≥ 90 | –
CON=C(C1=NOCCN1)c1ccccc1Oc1ncnc(Oc2ccccc2C(C)(C)C)c1F [Example 22] | 3.84 | – | ≥ 90 | –
